From patent publication US10208043B2, “Methods for inhibiting fascin” (Novita Pharmaceuticals, Inc., priority 2012, dated 2019)

Legend:
[1] = test system: DU145 prostate tumor cells; assay: Boyden-chamber cell migration assay, DU145; assay type: cell-based; conditions: Homo sapiens, DU-145
Procedure: (§1) Since fascin is critical for tumor cell migration, inhibitors of fascin should block tumor cell migration. Representative compounds were selected from the above-identified fascin inhibitors to test their abilities on inhibition of tumor cell migration (See Table 2). […] Therefore, tumor cells with fascin expression are likely sensitive to these fascin inhibitors. The cell lines used are listed below.
(§2) Exemplifying procedure: MDA-MB-231 cells (5×10^4) or 4T1 Cells (1×10^5) suspended in 100 μL starvation medium were added to the upper chamber of an insert (6.5 mm diameter, 8 μm pore size; Becton Dickson), and the insert was placed in a 24-well plate containing 700 μL starvation medium with or without 10% FBS. When used, inhibitors were added to the lower chamber. Migration assays were performed for 6 h and cells were fixed with 3.7% formaldehyde. Cells were stained with crystal violet staining solution, and cells on the upper side of the insert were removed with a cotton swab. Three randomly selected fields (×10 objectives) on the lower side of the insert were photographed, and the migrated cells were counted. Migration was expressed as average number of migrated cells in a field.

[2] = test system: 4T1 breast tumor cells; assay: Tumor metastasis in mouse models (lung metastasis, 6-thioguanine clonogenic assay); assay type: in vivo, Balb/c mice; conditions: 4T1 cells in mammary fat-pad, n=5, P<0.01
Procedure: Lung metastasis was measured by the 6-thioguanine clonogenic assay. […] Results are mean±SD (n=5). *, P<0.01.
Tumor cell migration is essential for tumor metastasis. […] Tumor cells (4T1 breast tumor cells) were injected into the mammary fat-pad of mice. The metastasis of these breast tumor cells from the mammary gland to the lung was monitored by the clonogenic assay.
Balb/c mice were purchased from Charles River. All animal procedures were approved by the Animal Care and Use Committees of the Weill Cornell Medical College and performed in accordance with institutional polices. For xenograft tumor metastasis studies, 5×10^5 4T1 cells were suspended in 100 μL PBS and injected subcutaneously into the mammary glands of 6-8 week old female Balb/c mice. Tumor incidence was monitored for 21 days after injection. Tumor size was measured three times a week, and the volume was calculated using the formula length×width^2×0.5. Compound treatment was initiated 7 days after tumor implantation; animals were administered daily with indicated dose for 2 weeks. On day 28, the mice were sacrificed. Numbers of metastatic 4T1 cells in lungs were determined by the clonogenic assay. […] Data are expressed as mean±S.D. and analyzed by Student's t test with significance defined as p<0.05.

[3] = molecular target: fascin (Homo sapiens (Human), UniProt Q16658); assay: High throughput fascin inhibition assay (actin bundling, F-actin imaging); assay type: biochemical
Procedure: A high throughput assay was developed to screen for fascin specific inhibitors. Purified polymerized F-actin with or without fascin were mixed and incubated to allow actin bundle formation. F-actin polymers were then bound to the poly-D-lysine coated plates. […] Four images were taken from each well and the average fiber length was analyzed for each tested compound.
Recombinant human fascin 1 was expressed as a GST fusion protein in BL21 Escherichia coli. One liter of 2YT medium with ampicillin was inoculated overnight with 3 mL of BL21/DE3 culture transformed with pGEX4T-fascin 1 plasmid and grown at 37° C. until attenuance at 600 nm (D600) reached about 0.8. The culture was then transferred to 18° C. and induced by the addition of 0.1 mM isopropyl β-d-thiogalactoside (IPTG) for 12 h. Bacteria were harvested by centrifugation at 5,000 r.p.m. for 10 min. The pellets were suspended in 30 mL of PBS supplemented with 0.2 mM PMSF, 1 mM DTT, 1% (v/v) Triton X-100 and 1 mM EDTA. After sonication, the suspension was centrifuged at 15,000 r.p.m. for 30 min to remove the cell debris. The supernatant was then incubated for 2 h with 4 mL of glutathione beads (Sigma) at 4° C. After extensive washing with PBS, the beads were resuspended in 10 mL of thrombin cleavage buffer (20 mM Tris-HCl pH 8.0, 150 mM NaCl, 2 mM CaCl2, 1 mM DTT). Fascin was released from the beads by incubation overnight with 40-100 U of thrombin at 4° C. After centrifugation, 0.2 mM PMSF was added to the supernatant to inactivate the remnant thrombin activity. The fascin protein was further concentrated with a Centricon® (Boca Raton, Fla.) filter to about 50 mg/mL.
About 150,000 compounds were screened. […] Purified fascin protein (15 μL of 0.5 μM) in buffer (100 mM KCl, 20 mM Tris/HCl, pH 7.5, 2 mM MgCl2) was added into each well of a clear 384-well flat-bottom plate (Corning) using Thermo Multidrop Combi (Fisher). Compound ([…]) solutions (5 mM stock) from various chemical libraries were pin transferred from stock 384-well plates into the 384-well assay plates and incubated for 30 min. Then 15 μL of 0.5 μM polymerized actin (in 100 mM KCl, 20 mM Tris/HCl, pH 7.5, 2 mM MgCl2, 1 mM DTT, 1 mM ATP) (Cytoskeleton Inc.) was added, resulting in 30 μM final concentration for chemical compounds. […] Mixed solution (25 μL) was then transferred to one well in a black 384-well plate coated with poly-D-lysine, and stained actin bundles or F-actin would stick onto the poly-D-lysine plates. After the plates were thoroughly washed with 1×PBS for 3 times, the plate was imaged using an ImageXpress Micro High Content Screening System (Molecular devices). The images were processed and analyzed using MetaMorph software. The raw image data for each well was background-corrected by subtraction of the median intensities across all wells on the plate. The background-corrected data was used to compute the bundle length for each well. The negative control wells were employed for quality control: multiple DMSO-only control wells (16 wells/plate) were present on each assay plate.

[4] = test system: PC-3 prostate tumor cells; assay: Boyden-chamber cell migration assay, PC-3; assay type: cell-based
Procedure: as §1, §2

[5] = test system: MDA-MB-231 breast tumor cells; assay: Boyden-chamber cell migration assay, MDA-MB-231; assay type: cell-based; conditions: Homo sapiens
Procedure: (§3) Since fascin is critical for tumor cell migration, inhibitors of fascin should block tumor cell migration. Representative compounds were selected from the above-identified fascin inhibitors to test their abilities on inhibition of tumor cell migration (See Table 2). […] The cell lines used are listed below.
as §2, with “When used, inhibitors were added to the lower chamber.” left out

[6] = test system: 4T1 breast tumor cells; assay: Boyden-chamber cell migration assay, 4T1; assay type: cell-based
Procedure: as §3
as §2, with “When used, inhibitors were added to the lower chamber.” left out

[7] = test system: LLC lung tumor cells; assay: Boyden-chamber cell migration assay, LLC; assay type: cell-based
Procedure: as §1, §2

[8] = Actin + Fascin + compound at 30 μM

| SMILES | IC50 [1] [µM] | tumor metastasis from mammary gland to lung ([2]; 8 mg/kg daily for 2 weeks) | IC50 [3] [µM] | fiber growth ([3]; 30 μM) | Average fiber length [3, 8] [arbitrary unit] | Average fiber thickness [3, 8] [arbitrary unit] | IC50 [4] [µM] | IC50 [5] [µM] | IC50 [6] [µM] | IC50 [7] [µM] | tumor metastasis from mammary gland to lung ([2]; 30 mg/kg daily for 2 weeks) |
| --- | --- | --- | --- | --- | --- | --- | --- | --- | --- | --- | --- |
| O=[N+]([O-])c1ccc(Cl)c(S(=O)(=O)Nc2nc3ccc(Cl)cc3s2)c1 [Compound 3, 2-chloro-N-(6-chlorobenzo[d]thiazol-2-yl)-5-nitrobenzenesulfonamide] | 25 | decreased the tumor metastasis | 0.652 | inhibited fiber growth | 0.39 | 0.35 | 25 | 25 | 20 | 25 | – |
| C/N=c1/nc(-c2ccccc2)n(-c2ccccc2)s1 [Compound 4, (Z)-N-(2,3-diphenyl-1,2,4-thiadiazol-5(2H)-ylidene)methanamine] | – | – | 0.5 | – | – | – | – | 30 | 50 | – | – |
| COc1ccc(S(=O)(=O)Nc2cc(Sc3nc[nH]n3)c(O)c3ccccc23)cc1 [Compound 10, N-(3-(1H-1,2,4-triazol-3-ylthio)-4-hydroxynaphthalen-1-yl)-4-methoxybenzenesulfonamide] | – | – | 0.807 | – | – | – | – | – | – | – | decreased the tumor metastasis |
